Data: PMC5218480 (PLoS ONE, 2017)

Tested on: MV-4-11 cells
Assay: Gene expression microarray analysis (Affymetrix PrimeView) and GSEA
Format: cell-based, human
Set-up: RFU PODN (11730768_x_at) / Fold change /veh PODN (11730768_x_at) / RFU LINC00158 (11744669_a_at) / Fold change /veh LINC00158 (11744669_a_at) / RFU DUSP10 (11751237_a_at) / Fold change /veh DUSP10 (11751237_a_at) / RFU ID3 (11757404_x_at) / Fold change /veh ID3 (11757404_x_at) / RFU PLEKHG5 (11737974_s_at) / Fold change /veh PLEKHG5 (11737974_s_at) / RFU LRRC4B (11730491_at) / Fold change /veh LRRC4B (11730491_at) / RFU GIMAP4 (11747438_a_at) / Fold change /veh GIMAP4 (11747438_a_at) / RFU KRT8 (11758183_x_at) / Fold change /veh KRT8 (11758183_x_at) / RFU CNN1 (11734310_a_at) / Fold change /veh CNN1 (11734310_a_at) / RFU VPS37D (11726825_at) / Fold change /veh VPS37D (11726825_at) / RFU C10orf10 (11716522_x_at) / Fold change /veh C10orf10 (11716522_x_at) / RFU KIR2DL2 /// KIR2DL4 /// KIR2DL5A /// KIR2DL5B /// KIR2DS1 /// KIR2DS2 /// KIR2DS3 /// KIR2DS4 /// KIR3DL3 /// KIR3DL3 /// KIR3DS1 (11738374_at) / Fold change /veh KIR2DL2 /// KIR2DL4 /// KIR2DL5A /// KIR2DL5B /// KIR2DS1 /// KIR2DS2 /// KIR2DS3 /// KIR2DS4 /// KIR3DL3 /// KIR3DL3 /// KIR3DS1 (11738374_at) / RFU C1QL1 (11718748_at) / Fold change /veh C1QL1 (11718748_at) / RFU TMPRSS4 (11747572_a_at) / Fold change /veh TMPRSS4 (11747572_a_at) / RFU HAMP (11756126_x_at) / Fold change /veh HAMP (11756126_x_at) / RFU RNFT2 (11725882_a_at) / Fold change /veh RNFT2 (11725882_a_at) / RFU NR4A2 (11747474_a_at) / Fold change /veh NR4A2 (11747474_a_at) / RFU ABCC12 (11746883_a_at) / Fold change /veh ABCC12 (11746883_a_at) / RFU TMEM136 (11760407_x_at) / Fold change /veh TMEM136 (11760407_x_at) / RFU CLDN22 /// WWC2 (11732394_at) / Fold change /veh CLDN22 /// WWC2 (11732394_at) / RFU HLA-DPB1 (11760878_x_at) / Fold change /veh HLA-DPB1 (11760878_x_at) / RFU SPINT1 (11716480_a_at) / Fold change /veh SPINT1 (11716480_a_at) / RFU GAP43 (11754022_s_at) / Fold change /veh GAP43 (11754022_s_at) / RFU A4GNT (11735810_at) / Fold change /veh A4GNT (11735810_at) / RFU PRB3 (11715151_x_at) / Fold change /veh PRB3 (11715151_x_at) / RFU TUBB4B (11761932_at) / Fold change /veh TUBB4B (11761932_at) / RFU CAPN14 (11732068_a_at) / Fold change /veh CAPN14 (11732068_a_at) / RFU TMCC2 (11721928_a_at) / Fold change /veh TMCC2 (11721928_a_at) / RFU IRGQ (11745062_a_at) / Fold change /veh IRGQ (11745062_a_at) / RFU FAM174B (11720279_a_at) / Fold change /veh FAM174B (11720279_a_at) / RFU TMPRSS4 (11748680_a_at) / Fold change /veh TMPRSS4 (11748680_a_at) / RFU FAM212B (11763350_a_at) / Fold change /veh FAM212B (11763350_a_at) / RFU PLEKHG5 (11743358_a_at) / Fold change /veh PLEKHG5 (11743358_a_at) / RFU ZSCAN30 (11745921_a_at) / Fold change /veh ZSCAN30 (11745921_a_at) / RFU CMKLR1 (11741424_a_at) / Fold change /veh CMKLR1 (11741424_a_at) / RFU LOC101060620 /// MAPK8IP1 (11723275_at) / Fold change /veh LOC101060620 /// MAPK8IP1 (11723275_at) / RFU SPTSSB (11747773_x_at) / Fold change /veh SPTSSB (11747773_x_at) / RFU PRSS12 (11739890_at) / Fold change /veh PRSS12 (11739890_at) / RFU BIN1 (11741810_x_at) / Fold change /veh BIN1 (11741810_x_at) / RFU WNT11 (11732464_a_at) / Fold change /veh WNT11 (11732464_a_at) / RFU C10orf10 (11716521_a_at) / Fold change /veh C10orf10 (11716521_a_at) / RFU C5orf56 (11738089_at) / Fold change /veh C5orf56 (11738089_at) / RFU CYB561 (11721691_x_at) / Fold change /veh CYB561 (11721691_x_at) / RFU ANKRD19P (11752326_a_at) / Fold change /veh ANKRD19P (11752326_a_at) / RFU OR2T12 /// OR2T33 /// OR2T8 (11738714_s_at) / Fold change /veh OR2T12 /// OR2T33 /// OR2T8 (11738714_s_at) / RFU VCAN (11748164_a_at) / Fold change /veh VCAN (11748164_a_at) / RFU JSRP1 (11732532_at) / Fold change /veh JSRP1 (11732532_at) / RFU KRTAP10-11 (11738290_x_at) / Fold change /veh KRTAP10-11 (11738290_x_at) / RFU MYO3A (11730013_a_at) / Fold change /veh MYO3A (11730013_a_at) / RFU EBF3 (11725865_a_at) / Fold change /veh EBF3 (11725865_a_at) / RFU CAMK2N1 (11719241_x_at) / Fold change /veh CAMK2N1 (11719241_x_at) / RFU C5orf56 (11738088_a_at) / Fold change /veh C5orf56 (11738088_a_at) / RFU OLFML3 (11715873_a_at) / Fold change /veh OLFML3 (11715873_a_at) / RFU LOC100653217 /// NTM (11731650_a_at) / Fold change /veh LOC100653217 /// NTM (11731650_a_at) / RFU MAPK11 (11762145_a_at) / Fold change /veh MAPK11 (11762145_a_at) / RFU FIZ1 (11724087_x_at) / Fold change /veh FIZ1 (11724087_x_at) / RFU OASL (11726364_x_at) / Fold change /veh OASL (11726364_x_at) / RFU SOX15 (11748057_x_at) / Fold change /veh SOX15 (11748057_x_at) / RFU CD79A (11719716_a_at) / Fold change /veh CD79A (11719716_a_at) / RFU HIST1H1D (11736915_at) / Fold change /veh HIST1H1D (11736915_at) / RFU CASKIN2 (11723855_a_at) / Fold change /veh CASKIN2 (11723855_a_at) / RFU LOC730098 (11760151_x_at) / Fold change /veh LOC730098 (11760151_x_at) / RFU OR4N2 (11742367_at) / Fold change /veh OR4N2 (11742367_at) / RFU PRRT2 (11749266_a_at) / Fold change /veh PRRT2 (11749266_a_at) / RFU SNX32 (11753110_a_at) / Fold change /veh SNX32 (11753110_a_at) / RFU CDHR5 (11726645_a_at) / Fold change /veh CDHR5 (11726645_a_at) / RFU RCAN1 (11760418_a_at) / Fold change /veh RCAN1 (11760418_a_at) / RFU FAM167A (11723789_a_at) / Fold change /veh FAM167A (11723789_a_at) / RFU FAM26E (11764081_at) / Fold change /veh FAM26E (11764081_at) / RFU ISYNA1 (11749810_s_at) / Fold change /veh ISYNA1 (11749810_s_at) / RFU ACY1 (11761880_at) / Fold change /veh ACY1 (11761880_at) / RFU 11764098_at / Fold change /veh 11764098_at / RFU SAMD14 (11745864_x_at) / Fold change /veh SAMD14 (11745864_x_at) / RFU NPB (11741838_a_at) / Fold change /veh NPB (11741838_a_at) / RFU TMPRSS6 (11731388_a_at) / Fold change /veh TMPRSS6 (11731388_a_at) / RFU KRTAP10-2 (11738614_at) / Fold change /veh KRTAP10-2 (11738614_at) / RFU ARHGAP8 /// PRR5-ARHGAP8 (11727945_x_at) / Fold change /veh ARHGAP8 /// PRR5-ARHGAP8 (11727945_x_at) / RFU KRTAP5-7 /// NADSYN1 (11734609_at) / Fold change /veh KRTAP5-7 /// NADSYN1 (11734609_at) / RFU RASL12 (11751679_a_at) / Fold change /veh RASL12 (11751679_a_at) / RFU CDKN2B (11736163_a_at) / Fold change /veh CDKN2B (11736163_a_at) / RFU PRF1 (11729649_at) / Fold change /veh PRF1 (11729649_at) / RFU, ZNF638 /// ZNF638-IT1 / Fold change vs veh, ZNF638 /// ZNF638-IT1 / RFU, PANK3 / Fold change vs veh, PANK3 / RFU, SH3YL1 / Fold change vs veh, SH3YL1 / RFU, ZEB2 / Fold change vs veh, ZEB2 / RFU, NRIP1 / Fold change vs veh, NRIP1 / RFU, PTTG1IP / Fold change vs veh, PTTG1IP / RFU, CAPN2 / Fold change vs veh, CAPN2 / RFU, MED14 / Fold change vs veh, MED14 / RFU, SNORA58 / Fold change vs veh, SNORA58 / RFU, C1orf63 / Fold change vs veh, C1orf63 / RFU, LRRFIP1 / Fold change vs veh, LRRFIP1 / RFU, NDUFAF7 / Fold change vs veh, NDUFAF7 / RFU, SLC12A2 / Fold change vs veh, SLC12A2 / RFU, IBTK / Fold change vs veh, IBTK / RFU, ESF1 / Fold change vs veh, ESF1 / Fold change vs veh, TMEM50B / RFU, TAOK1 / Fold change vs veh, TAOK1 / RFU, ACBD3 / Fold change vs veh, ACBD3 / RFU, TMA16 / Fold change vs veh, TMA16 / RFU, RWDD3 / Fold change vs veh, RWDD3 / RFU, BCAT1 / Fold change vs veh, BCAT1 / RFU, EDEM3 / Fold change vs veh, EDEM3 / RFU, TMEM33 / Fold change vs veh, TMEM33 / RFU, WDR75 / Fold change vs veh, WDR75 / RFU, AHCTF1 / Fold change vs veh, AHCTF1 / RFU, TFRC / Fold change vs veh, TFRC / RFU, ZDHHC17 / Fold change vs veh, ZDHHC17 / RFU, NOM1 / Fold change vs veh, NOM1 / RFU, ARL8B / Fold change vs veh, ARL8B / RFU, ZBTB11 / Fold change vs veh, ZBTB11 / RFU, TAMM41 / Fold change vs veh, TAMM41 / RFU, KIAA1704 /// LOC100996395 / Fold change vs veh, KIAA1704 /// LOC100996395 / RFU, ING1 / Fold change vs veh, ING1 / RFU, TRMT61B / Fold change vs veh, TRMT61B / RFU, FUBP3 / Fold change vs veh, FUBP3 / RFU, TP53 / Fold change vs veh, TP53 / RFU, TNKS2 / Fold change vs veh, TNKS2 / RFU, ZFP14 / Fold change vs veh, ZFP14 / RFU, ACTR2 / Fold change vs veh, ACTR2 / RFU, PPP3R1 / Fold change vs veh, PPP3R1 / RFU, PIK3R1 / Fold change vs veh, PIK3R1 / RFU, HNRNPA1 / Fold change vs veh, HNRNPA1 / RFU, RNF170 / Fold change vs veh, RNF170 / RFU, ZNF28 / Fold change vs veh, ZNF28 / RFU, RNGTT / Fold change vs veh, RNGTT / RFU, OGT / Fold change vs veh, OGT / RFU, BRD1 / Fold change vs veh, BRD1 / RFU, MARS / Fold change vs veh, MARS / RFU, ZNF655 / Fold change vs veh, ZNF655 / RFU, FAHD1 / Fold change vs veh, FAHD1 / RFU, BDP1 / Fold change vs veh, BDP1 / RFU, LRRCC1 / Fold change vs veh, LRRCC1 / RFU, ARID1A / Fold change vs veh, ARID1A / RFU, ZNF146 / Fold change vs veh, ZNF146 / RFU, ZNF330 / Fold change vs veh, ZNF330 / RFU, GPN3 / Fold change vs veh, GPN3 / RFU, C9orf123 / Fold change vs veh, C9orf123 / RFU, N4BP2L2 / Fold change vs veh, N4BP2L2 / RFU, ARFIP1 / Fold change vs veh, ARFIP1 / RFU, FAM179B / Fold change vs veh, FAM179B / RFU, BCL10 / Fold change vs veh, BCL10 / RFU, UHRF1BP1L / Fold change vs veh, UHRF1BP1L / RFU, BET1 / Fold change vs veh, BET1 / RFU, CNOT2 / Fold change vs veh, CNOT2 / RFU, ZNF268 / Fold change vs veh, ZNF268 / Fold change vs veh, ZNF507 / RFU, DGCR2 / Fold change vs veh, DGCR2 / RFU, WDSUB1 / Fold change vs veh, WDSUB1 / Fold change vs veh, HSP90B1 /// MIR3652 / RFU, ADSS / Fold change vs veh, ADSS / RFU, GK / Fold change vs veh, GK / RFU, ZNF148 / Fold change vs veh, ZNF148 / RFU, TAF9 / Fold change vs veh, TAF9 / RFU, SLC1A5 / Fold change vs veh, SLC1A5 / RFU, SLMO2 / Fold change vs veh, SLMO2 / RFU, ABCC4 / Fold change vs veh, ABCC4 / RFU, LOC101060439 /// RAP1B / Fold change vs veh, LOC101060439 /// RAP1B / RFU, RFX7 / Fold change vs veh, RFX7 / RFU, GTPBP10 / Fold change vs veh, GTPBP10 / RFU, CNEP1R1 / Fold change vs veh, CNEP1R1 / RFU, BIVM-ERCC5 /// ERCC5 / Fold change vs veh, BIVM-ERCC5 /// ERCC5 / RFU, ILF3 / Fold change vs veh, ILF3 / RFU 11762660_at / Fold change /veh 11762660_at / RFU VCAN (11757783_s_at) / Fold change /veh VCAN (11757783_s_at) / RFU DDX43 (11728927_at) / Fold change /veh DDX43 (11728927_at) / RFU KRT8 (11758188_x_at) / Fold change /veh KRT8 (11758188_x_at) / RFU NKD1 (11759106_at) / Fold change /veh NKD1 (11759106_at) / RFU SRD5A1 (11742802_a_at) / Fold change /veh SRD5A1 (11742802_a_at) / RFU TPSAB1 /// TPSB2 (11721975_s_at) / Fold change /veh TPSAB1 /// TPSB2 (11721975_s_at) / RFU GSTM3 (11746129_a_at) / Fold change /veh GSTM3 (11746129_a_at) / RFU IL23R (11737362_x_at) / Fold change /veh IL23R (11737362_x_at) / RFU TMEM51 (11727254_a_at) / Fold change /veh TMEM51 (11727254_a_at) / RFU PIWIL2 (11732686_x_at) / Fold change /veh PIWIL2 (11732686_x_at) / RFU ORM1 (11744905_x_at) / Fold change /veh ORM1 (11744905_x_at) / RFU CCDC152 (11743942_at) / Fold change /veh CCDC152 (11743942_at) / RFU ECM1 (11717891_a_at) / Fold change /veh ECM1 (11717891_a_at) / RFU IL23R (11748794_a_at) / Fold change /veh IL23R (11748794_a_at) / RFU TNFAIP8L3 (11732012_x_at) / Fold change /veh TNFAIP8L3 (11732012_x_at) / RFU MBOAT4 (11741988_at) / Fold change /veh MBOAT4 (11741988_at) / RFU 11764193_at / Fold change /veh 11764193_at / RFU TMEM53 (11763286_at) / Fold change /veh TMEM53 (11763286_at) / RFU MAGEB2 (11727129_at) / Fold change /veh MAGEB2 (11727129_at) / RFU TMEM200A (11744735_a_at) / Fold change /veh TMEM200A (11744735_a_at) / RFU CCDC152 (11751479_a_at) / Fold change /veh CCDC152 (11751479_a_at) / RFU FAM211A (11726209_a_at) / Fold change /veh FAM211A (11726209_a_at) / RFU RGS16 (11746705_a_at) / Fold change /veh RGS16 (11746705_a_at) / RFU VCAN (11755009_s_at) / Fold change /veh VCAN (11755009_s_at) / RFU RHOB (11743442_s_at) / Fold change /veh RHOB (11743442_s_at) / RFU RGS16 (11720943_a_at) / Fold change /veh RGS16 (11720943_a_at) / RFU RGS16 (11720944_at) / Fold change /veh RGS16 (11720944_at) / RFU, VPS4B / Fold change vs veh, VPS4B / RFU, CREB1 / Fold change vs veh, CREB1 / RFU, DNAJC13 / Fold change vs veh, DNAJC13 / RFU, GNAQ / Fold change vs veh, GNAQ / RFU, CDK5R1 / Fold change vs veh, CDK5R1 / RFU, ZRANB3 / Fold change vs veh, ZRANB3 / RFU, CUL4A / Fold change vs veh, CUL4A / RFU, CCNY / Fold change vs veh, CCNY / RFU, UFL1 / Fold change vs veh, UFL1 / RFU, COG3 / Fold change vs veh, COG3 / RFU, DIAPH2 / Fold change vs veh, DIAPH2 / RFU, SKA2 / Fold change vs veh, SKA2 / RFU, AFF3 / Fold change vs veh, AFF3 / RFU, LMF1 / Fold change vs veh, LMF1 / RFU, IPO11 / Fold change vs veh, IPO11 / RFU, DFFB / Fold change vs veh, DFFB / RFU, FOXP1 / Fold change vs veh, FOXP1 / RFU, CARD8 / Fold change vs veh, CARD8 / RFU, STRN3 / Fold change vs veh, STRN3 / RFU, ADK / Fold change vs veh, ADK / RFU, RASSF2 / Fold change vs veh, RASSF2 / RFU, WIPF1 / Fold change vs veh, WIPF1 / RFU, LARP1B / Fold change vs veh, LARP1B / RFU, RASA1 / Fold change vs veh, RASA1 / RFU, RB1 / Fold change vs veh, RB1 / RFU, PPFIA1 / Fold change vs veh, PPFIA1 / RFU, MAT2A / Fold change vs veh, MAT2A / RFU, CCT5 / Fold change vs veh, CCT5 / RFU, WDR92 / Fold change vs veh, WDR92 / RFU, CUX1 / Fold change vs veh, CUX1 / RFU, TTC7A / Fold change vs veh, TTC7A / RFU, TMEM135 / Fold change vs veh, TMEM135 / RFU, DEPTOR / Fold change vs veh, DEPTOR / RFU, CPM / Fold change vs veh, CPM / RFU, DNAJB6 / Fold change vs veh, DNAJB6 / RFU, CACNA2D3 / Fold change vs veh, CACNA2D3 / RFU, DTX4 / Fold change vs veh, DTX4 / RFU, TFCP2 / Fold change vs veh, TFCP2 / RFU, GMCL1 /// GMCL1P1 / Fold change vs veh, GMCL1 /// GMCL1P1 / RFU, AEBP2 / Fold change vs veh, AEBP2 / RFU, SNHG1 /// SNORD22 /// SNORD25 /// SNORD26 /// SNORD27 /// SNORD28 /// SNORD29 /// SNORD31 / Fold change vs veh, SNHG1 /// SNORD22 /// SNORD25 /// SNORD26 /// SNORD27 /// SNORD28 /// SNORD29 /// SNORD31 / Fold change (Aza/veh), C12orf56 (ProbeSet 11735607_a_at) / Fold change (ACY-1035/veh), C12orf56 (ProbeSet 11735607_a_at) / Fold change (Aza/veh), FGFR1OP (ProbeSet 11751329_s_at) / Fold change (ACY-1035/veh), FGFR1OP (ProbeSet 11751329_s_at) / Fold change (Aza/veh), VPS36 (ProbeSet 11739960_a_at) / Fold change (ACY-1035/veh), VPS36 (ProbeSet 11739960_a_at) / RFU SYPL1 (11715823_x_at) / Fold change /veh SYPL1 (11715823_x_at) / RFU IGFBP7 (11715501_s_at) / Fold change /veh IGFBP7 (11715501_s_at) / RFU REEP3 (11722064_at) / Fold change /veh REEP3 (11722064_at) / RFU IGLL1 (11728026_x_at) / Fold change /veh IGLL1 (11728026_x_at): dose or concentration left out as unconfirmed
Conditions: MV-4-11 cells, 48 hours

## Nc1ncn([C@@H]2O[C@H](CO)[C@@H](O)[C@H]2O)c(=O)n1 [azacitidine]
  RFU IGLL1 (11728026_x_at): 12.85 RFU
